# Measurements published in patent US20250289785A1, “INDOLE DERIVATIVE, METHOD FOR PREPARING SAME, AND USE THEREOF” (MITOIMMUNE THERAPEUTICS INC., priority 2021, published 2025).
# Key:
# [1] = test system: ARPE-19 cells; test: Cell death protective effect in retinal epithelial cells against Erastin and RSL3 (LDH); assay type: cell-based, human; conditions: 24 h
# Description: In order to identify the protective effect on retinal epithelial cells, ARPE-19 cells were divided into 96-well plates by 1×10^4 and cultured for 18 to 24 hours. The compounds of Examples were diluted to final concentrations of 0.03 and 0.3 μM, treated in each well, and incubated for 20 minutes. Erastin, and RSL3 were treated to have final concentrations of 10 μM, and 0.3 μM, respectively, and cultured for 24 hours. In order to identify the protective effect of each compound, the degree of LDH extracellular secretion was measured using cytotoxicity LDH assay kit [Dojindo; CK12]. Briefly, at the time when the treatment of the cells with Erastin, and RSL3 for 24 hours is completed, the supernatants containing the cells are taken by 70 μL and transferred to a new 96-well plate. The assay buffer included in the kit is added in an amount of 70 μL/well (the same amount as the sample) thereto, and then the plate is wrapped with a foil and the reaction is performed at room temperature for 15 minutes.
# [2] = test system: NRK-49F cells; test: Cell death protective effect in renal fibroblasts against Erastin, glutamate and RSL3 (LDH); assay type: cell-based, rat; conditions: 24 h
# Description: (§1) In order to identify the protective effect on renal fibroblasts, NRK-49F cells were divided into 96-well plates by 1×10^4 and cultured for 18 to 24 hours. The compounds of Examples were diluted to final concentrations of 0.1 and 1. μM, treated in each well, and incubated for 15 to 20 minutes. Erastin, glutamate, and RSL3 were treated to have final concentrations of 3 μM, 75 mM, and 3 μM, respectively, and cultured for 24 hours. In order to identify the protective effect of each compound, the degree of LDH extracellular secretion was measured using cytotoxicity LDH assay kit [Dojindo; CK12]. Briefly, at the time when the treatment of the cells with Erastin, glutamate, and RSL3 for 24 hours is completed, the supernatants containing the cells are taken by 70 μL and transferred to a new 96-well plate. The assay buffer included in the kit is added in an amount of 70 μL/well (the same amount as the sample) thereto, and then the plate is wrapped with a foil and the reaction is performed at room temperature for 15 minutes.
# [3] = test system: H9C2 cells; test: Cell death protective effect in cardiac myocytes against Erastin, glutamate and RSL3 (LDH); assay type: cell-based, white mouse; conditions: 24 h
# Description: as §1, with “on cardiac cells, H9C2” for “on renal fibroblasts, NRK-49F”, “and 1.0” for “and 1.”, “of 1” for “of 3”, “μM, 25” for “μM, 75”, “and 0.5” for “and 3”
# [4] = test system: NIH/3T3 cells; test: Cell death protective effect in fibroblasts against Erastin, glutamate and RSL3 (LDH); assay type: cell-based, mouse; conditions: 24 h
# Description: as §1, with “on” for “on renal”, “NIH/3T3” for “NRK-49F”, “8×10^3” for “1×10^4”, “1” for “1.”, “30” for “75”
# [5] = test system: MLE-12 cells; test: Cell death protective effect in lung epithelial cells against RSL3 (LDH); assay type: cell-based, rat; conditions: MLE-12, RSL3, 1 μM, 24 h
# Description: In order to identify the protective effect on lung epithelial cells, MLE-12 cells were divided into 96-well plates by 5×10^3 and cultured for 18 to 24 hours. The compounds of Examples were diluted to final concentrations of 0.03 and 0. μM, treated in each well, and incubated for 20 minutes. RSL3 was treated to have final concentrations of 1. μM, respectively, and cultured for 24 hours. In order to identify the protective effect of each compound, the degree of LDH extracellular secretion was measured using cytotoxicity LDH assay kit [Dojindo; CK12]. Briefly, at the time when the treatment of the cells with RSL3 for 24 hours is completed, the supernatants containing the cells are taken by 70 μL and transferred to a new 96-well plate. The assay buffer included in the kit is added in an amount of 70 μL/well (the same amount as the sample) thereto, and then the plate is wrapped with a foil and the reaction is performed at room temperature for 15 minutes.
# [6] = ARPE-19, Erastin, 10 μM, compound 0.03 μM
# [7] = ARPE-19, Erastin, 10 μM, compound 0.3 μM
# [8] = ARPE-19, RSL3, 0.3 μM, compound 0.03 μM (first RSL3 column)
# [9] = ARPE-19, RSL3, 0.3 μM, compound 0.03 μM (second RSL3 column)
# [10] = Glutamate, 75 mM, compound 0.1 μM
# [11] = Glutamate, 75 mM, compound 1.0 μM
# [12] = H9C2, Erastin, 1 μM, compound 0.1 μM
# [13] = H9C2, Erastin, 1 μM, compound 1.0 μM
# [14] = H9C2, Glutamate, 25 mM, compound 0.1 μM
# [15] = H9C2, Glutamate, 25 mM, compound 1.0 μM
# [16] = H9C2, RSL3, 0.5 μM, compound 0.1 μM
# [17] = H9C2, RSL3, 0.5 μM, compound 1.0 μM
# [18] = NIH/3T3, Erastin, 3 μM, compound 0.1 μM
# [19] = NIH/3T3, Erastin, 3 μM, compound 1.0 μM
# [20] = NIH/3T3, Glutamate, 30 mM, compound 0.1 μM
# [21] = NIH/3T3, Glutamate, 30 mM, compound 1.0 μM
# [22] = NIH/3T3, RSL3, 3 μM, compound 0.1 μM
# [23] = NIH/3T3, RSL3, 3 μM, compound 1.0 μM
smiles,measurement,setting,value
"COCc1cc(NC2CCOCC2)c2[nH]c(-c3ccccc3)cc2c1 [Example 1, 5-(methoxymethyl)-2-phenyl-N-tetrahydropyran-4-yl-1H-indol-7-amine]",inhibition (%),[1]; [6],100%
same,inhibition (%),[1]; [7],100%
same,inhibition (%),[1]; [8],100%
same,inhibition (%),[1]; [9],100%
same,inhibition (%),"[2]; Erastin, 3 μM, compound 0.1 μM",96%
same,inhibition (%),"[2]; Erastin, 3 μM, compound 1.0 μM",95%
same,inhibition (%),[2]; [10],100%
same,inhibition (%),[2]; [11],100%
same,inhibition (%),"[2]; RSL3, 3 μM, compound 0.1 μM",98%
same,inhibition (%),"[2]; RSL3, 3 μM, compound 1.0 μM",98%
same,inhibition (%),[3]; [12],100%
same,inhibition (%),[3]; [13],100%
same,inhibition (%),[3]; [14],97%
same,inhibition (%),[3]; [15],98%
same,inhibition (%),[3]; [16],100%
same,inhibition (%),[3]; [17],100%
same,inhibition (%),[4]; [18],99%
same,inhibition (%),[4]; [19],99%
same,inhibition (%),[4]; [20],98%
same,inhibition (%),[4]; [21],97%
same,inhibition (%),[4]; [22],98%
same,inhibition (%),[4]; [23],99%
same,inhibition (%),[5]; compound 0.03 μM,88%
same,inhibition (%),[5]; compound 0.3 μM,100%
"CCOC(=O)c1ccc(NC2CCCCC2)c(N)c1 [Ferrostatin-1, reference compound]",inhibition (%),[1]; [6],96%
same,inhibition (%),[1]; [7],100%
same,inhibition (%),[1]; [8],68%
same,inhibition (%),[1]; [9],100%
same,inhibition (%),"[2]; Erastin, 3 μM, compound 0.1 μM",98%
same,inhibition (%),"[2]; Erastin, 3 μM, compound 1.0 μM",97%
same,inhibition (%),[2]; [10],90%
same,inhibition (%),[2]; [11],100%
same,inhibition (%),"[2]; RSL3, 3 μM, compound 0.1 μM",97%
same,inhibition (%),"[2]; RSL3, 3 μM, compound 1.0 μM",97%
same,inhibition (%),[3]; [12],100%
same,inhibition (%),[3]; [13],100%
same,inhibition (%),[3]; [14],95%
same,inhibition (%),[3]; [15],97%
same,inhibition (%),[3]; [16],83%
same,inhibition (%),[3]; [17],100%
same,inhibition (%),[4]; [18],0%
same,inhibition (%),[4]; [19],96%
same,inhibition (%),[4]; [20],98%
same,inhibition (%),[4]; [21],98%
same,inhibition (%),[4]; [22],100%
same,inhibition (%),[4]; [23],100%
same,inhibition (%),[5]; compound 0.03 μM,25%
same,inhibition (%),[5]; compound 0.3 μM,98%
"COCCc1cc(NC2CCOCC2)c2[nH]c(-c3ccccc3)cc2c1 [Example 41, 5-(2-methoxyethyl)-2-phenyl-N-(tetrahydro-2H-pyran-4-yl)-1H-indol-7-amine]",inhibition (%),[1]; [6],100%
same,inhibition (%),[1]; [7],100%
same,inhibition (%),[1]; [8],100%
same,inhibition (%),[1]; [9],100%
same,inhibition (%),"[2]; Erastin, 3 μM, compound 0.1 μM",96%
same,inhibition (%),"[2]; Erastin, 3 μM, compound 1.0 μM",94%
same,inhibition (%),[2]; [10],100%
same,inhibition (%),[2]; [11],100%
same,inhibition (%),"[2]; RSL3, 3 μM, compound 0.1 μM",97%
same,inhibition (%),"[2]; RSL3, 3 μM, compound 1.0 μM",97%
same,inhibition (%),[3]; [12],100%
same,inhibition (%),[3]; [13],100%
same,inhibition (%),[3]; [14],99%
same,inhibition (%),[3]; [15],98%
same,inhibition (%),[3]; [16],100%
same,inhibition (%),[3]; [17],100%
same,inhibition (%),[4]; [18],0%
same,inhibition (%),[4]; [19],0%
same,inhibition (%),[4]; [20],99%
same,inhibition (%),[4]; [21],98%
same,inhibition (%),[4]; [22],100%
same,inhibition (%),[4]; [23],100%
same,inhibition (%),[5]; compound 0.03 μM,95%
same,inhibition (%),[5]; compound 0.3 μM,97%
"CCOCc1cc(NC2CCCC2)c2[nH]c(-c3ccccc3)cc2c1 [Example 19, N-cyclopentyl-5-(ethoxymethyl)-2-phenyl-1H-indol-7-amine]",inhibition (%),[1]; [6],99%
same,inhibition (%),[1]; [7],100%
same,inhibition (%),[1]; [8],100%
same,inhibition (%),[1]; [9],100%
same,inhibition (%),"[2]; Erastin, 3 μM, compound 0.1 μM",96%
same,inhibition (%),"[2]; Erastin, 3 μM, compound 1.0 μM",95%
same,inhibition (%),[2]; [10],100%
same,inhibition (%),[2]; [11],100%
same,inhibition (%),"[2]; RSL3, 3 μM, compound 0.1 μM",97%
same,inhibition (%),"[2]; RSL3, 3 μM, compound 1.0 μM",96%
same,inhibition (%),[3]; [12],100%
same,inhibition (%),[3]; [13],100%
same,inhibition (%),[3]; [14],99%
same,inhibition (%),[3]; [15],100%
same,inhibition (%),[3]; [16],100%
same,inhibition (%),[3]; [17],100%
same,inhibition (%),[4]; [18],100%
same,inhibition (%),[4]; [19],100%
same,inhibition (%),[4]; [20],95%
same,inhibition (%),[4]; [21],97%
same,inhibition (%),[4]; [22],100%
same,inhibition (%),[4]; [23],100%
same,inhibition (%),[5]; compound 0.03 μM,93%
same,inhibition (%),[5]; compound 0.3 μM,100%
"COCc1cc(NC2CC[S+]([O-])CC2)c2[nH]c(-c3ccccc3)cc2c1 (stereo not drawn) [Example 14, 5-(methoxymethyl)-N-(1-oxothian-4-yl)-2-phenyl-1H-indol-7-amine]",inhibition (%),[1]; [6],100%
same,inhibition (%),[1]; [7],98%
same,inhibition (%),[1]; [8],82%
same,inhibition (%),[1]; [9],98%
same,inhibition (%),"[2]; Erastin, 3 μM, compound 0.1 μM",96%
same,inhibition (%),"[2]; Erastin, 3 μM, compound 1.0 μM",93%
same,inhibition (%),[2]; [10],100%
same,inhibition (%),[2]; [11],100%
same,inhibition (%),"[2]; RSL3, 3 μM, compound 0.1 μM",97%
same,inhibition (%),"[2]; RSL3, 3 μM, compound 1.0 μM",97%
same,inhibition (%),[3]; [12],100%
same,inhibition (%),[3]; [13],100%
same,inhibition (%),[3]; [14],97%
same,inhibition (%),[3]; [15],99%
same,inhibition (%),[3]; [16],100%
same,inhibition (%),[3]; [17],100%
same,inhibition (%),[4]; [18],38%
same,inhibition (%),[4]; [19],100%
same,inhibition (%),[4]; [20],97%
same,inhibition (%),[4]; [21],96%
same,inhibition (%),[4]; [22],100%
same,inhibition (%),[4]; [23],100%
same,inhibition (%),[5]; compound 0.03 μM,50%
same,inhibition (%),[5]; compound 0.3 μM,100%
"COCc1cc(NC2CCCC2)c2[nH]c(-c3ccccc3)cc2c1 [Example 2, N-cyclopentyl-5-(methoxymethyl)-2-phenyl-1H-indol-7-amine]",inhibition (%),[1]; [6],100%
same,inhibition (%),[1]; [7],100%
same,inhibition (%),[1]; [8],100%
same,inhibition (%),[1]; [9],100%
same,inhibition (%),"[2]; Erastin, 3 μM, compound 0.1 μM",97%
same,inhibition (%),"[2]; Erastin, 3 μM, compound 1.0 μM",94%
same,inhibition (%),[2]; [10],100%
same,inhibition (%),[2]; [11],100%
same,inhibition (%),"[2]; RSL3, 3 μM, compound 0.1 μM",98%
same,inhibition (%),"[2]; RSL3, 3 μM, compound 1.0 μM",97%
same,inhibition (%),[3]; [12],100%
same,inhibition (%),[3]; [13],100%
same,inhibition (%),[3]; [14],97%
same,inhibition (%),[3]; [15],98%
same,inhibition (%),[3]; [16],100%
same,inhibition (%),[3]; [17],100%
same,inhibition (%),[4]; [18],99%
same,inhibition (%),[4]; [19],100%
same,inhibition (%),[4]; [20],98%
same,inhibition (%),[4]; [21],99%
same,inhibition (%),[4]; [22],100%
same,inhibition (%),[4]; [23],100%
same,inhibition (%),[5]; compound 0.03 μM,84%
same,inhibition (%),[5]; compound 0.3 μM,9%
